Assays:
chemotaxis = details: cited from earlier work
cpts248/404 = experiment: Inhibition of infectivity of mutant RSV strain 248/404, HEp-2 plaque assay; assay type: cell-based, respiratory syncytial virus (RSV); details: treated 1 h before infection, 5 days
Experimental: (§1) Virus stocks. Wild type RSV strains A2 and B1 (Wright et al., 1973) and mutant RSV strains cpts248/404 (Ackerlind et al., 1988), rA2 cpts248/404ASH (Crowe et al., 1994) and cp32/D1, deficient in SH and G genes (nucleotides 4064-5462) (Karron et al., 1997), were propagated as previously described (Hancock et al., 1996) in HEp-2 cells (ATCC CCL 23) cultured in complete medium (DMEM supplemented with 2 mM L-glutamine, 2% penicillin/streptomycin and 10% (V/V) FBS, 37° C., 5% CO2). The cp32/D1 mutant was isolated from the B1 strain using methodologies previously described for cp52 (Crowe et al., 1996; Karron et al., 1997). A recombinant RSV, (rA2 cpΔG118) genetically truncated at amino acid 117 of G protein was also used in the investigation. All virus stocks were prepared from cell lysates clarified by low speed (200 g) centrifugation 15 minutes at 4° C.
(§2) Inhibition of virus infectivity in vitro. HEp-2 cell monolayers were grown in 96-well tissue culture plates (Falcon, Becton Dickson and Co.; Franklin Lakes, N.J.) with complete medium. The monolayers were pre-treated for 1 hour at 4° C. or 37° C. in triplicate wells with the indicated amounts of recombinant chemokine or anti-chemokine receptor antibody. After removal of chemokine or antibody, the monolayers were infected 1 hour at the same temperature with the denoted wild type or mutant RSV strain and then overlaid with 2% Sephadex (Amersham Biosciences; Piscataway, N.J.). Anti-viral activity was also assessed 1 hour after the cells were infected, or following simultaneous exposure of the monolayers to virus in a 1:1 mixture with the indicated doses of chemokines or CCL5 peptides. […]
(§3) Plaque assay. […] Bound antibody was detected using 0.05% 4-chloro-1-naphtol containing 0.1% H2O2 in PBS. After enumeration of plaques, the mean percent infectivity (±1 standard deviation of triplicate wells) was calculated relative to monolayers exposed to virus in culture medium alone without chemokine or anti-chemokine receptor antibody.

cp32/D1 = experiment: Inhibition of infectivity of mutant RSV strain lacking SH and G proteins, HEp-2 plaque assay; assay type: cell-based, respiratory syncytial virus (RSV); details: Table 15 Experiment 2, 10 μg/ml, treated 1 h before infection, 5 days
Experimental: as §1, with “All virus stocks were prepared from cell lysates clarified by low speed (200 g) centrifugation 15 minutes at 4° C.” left out
(§4) Inhibition of virus infectivity in vitro. […] Anti-viral activity was also assessed 1 hour after the cells were infected, or following simultaneous exposure of the monolayers to virus in a 1:1 mixture with the indicated doses of chemokines or CCL5 peptides. […]
as §3, with “antibody. […]” for “antibody.”

RSV A2 = experiment: Inhibition of RSV infectivity in vitro, plaque assay on HEp-2 cell monolayers; assay type: cell-based, respiratory syncytial virus (RSV)
Experimental: (§5) Inhibition of virus infectivity in vitro. HEp-2 cell monolayers were grown in 96-well tissue culture plates (Falcon, Becton Dickson and Co.; Franklin Lakes, N.J.) with complete medium. The monolayers were pre-treated for 1 hour at 4° C. or 37° C. in triplicate wells with the indicated amounts of recombinant chemokine or anti-chemokine receptor antibody. After removal of chemokine or antibody, the monolayers were infected 1 hour at the same temperature with the denoted wild type or mutant RSV strain and then overlaid with 2% Sephadex (Amersham Biosciences; Piscataway, N.J.). Anti-viral activity was also assessed 1 hour after the cells were infected, or following simultaneous exposure of the monolayers to virus in a 1:1 mixture with the indicated doses of chemokines or CCL5 peptides. The inhibitory properties of the anti-chemokine receptor antibodies were tested alone or in combination at doses ranging from 5 to 100 μg/ml culture medium.
Plaque assay. Virus plaques were visualized as previously described (Hancock et al. 1996) using anti-F protein (L4) mAb (Paradiso et al., 1991; Walsh and Hruska, 1983). Thereafter, cells were rinsed with blotto blocking agent (PBS, 5% powdered milk) and incubated with horseradish peroxidase-conjugated goat anti-mouse IgG (Kirkegaard and Perry Laboratories, Inc.; Gaithersburg, Md.). Bound antibody was detected using 0.05% 4-chloro-1-naphtol containing 0.1% H2O2 in PBS. After enumeration of plaques, the mean percent infectivity (±1 standard deviation of triplicate wells) was calculated relative to monolayers exposed to virus in culture medium alone without chemokine or anti-chemokine receptor antibody.

RSV B1 = experiment: Inhibition of infectivity of wild type RSV B1, HEp-2 plaque assay; assay type: cell-based, respiratory syncytial virus (RSV); details: Table 15 Experiment 2; strain B1; 10 μg/ml, treated 1 h before infection; 5 days
Experimental: as §1, with “All virus stocks were prepared from cell lysates clarified by low speed (200 g) centrifugation 15 minutes at 4° C.” left out
as §4, §3

HEp-2 cells = experiment: Binding of biotinylated CCL5 peptides to HEp-2 cell monolayers (ELISA); parameters: species or system human; details: FIG. 3, viable HEp-2 cells at 4° C.
Experimental: Interaction of CCL5 peptides with HEp-2 cells. An ELISA was used to assess the relative binding of synthetic peptides to HEp-2 cell monolayers. In brief, 96-well plates (Falcon) were seeded with 3×10^4 HEp-2 cells per well in 0.2 ml of complete medium. After overnight incubation (37° C., 5% CO2), the monolayers were cooled on ice for approximately 15 minutes. The biotinylated peptides were added to duplicate wells in ascending doses from 0.49 μg to 500 μg per ml DMEM (supplemented with 1% FBS, 2% penicillin/streptomycin, and 2 mM L-glutamine) and incubated at 4° C. for 1 hour. The monolayers were then fixed (20 minutes at RT) with 80% methanol (J T Baker; Phillipsburg, N.J.). […] Thereafter, the monolayers were incubated (1 hour at RT) with streptavidin-HRP (Zymed; San Francisco, Calif.). The wells were developed with TMB One-Step Substrate Solution (DAKO; Carpinteria, Calif.). Optical density was determined (450 nm, reference at 550 nm) with a Molecular Devices Versamax microplate reader (Sunnyvale, Calif.).

rA2cpΔ118 = experiment: Inhibition of infectivity of RSV with truncated G protein, HEp-2 plaque assay; assay type: cell-based, respiratory syncytial virus (RSV); details: Table 15 Experiment 1; strain rA2cpΔ118; 10 μg/ml, treated 1 h before infection; 5 days
Experimental: as §1, with “All virus stocks were prepared from cell lysates clarified by low speed (200 g) centrifugation 15 minutes at 4° C.” left out
as §4
as §3, with “antibody. […]” for “antibody.”

rA2 cpts248/404ΔSH = experiment: Inhibition of infectivity of mutant RSV strain lacking SH protein, HEp-2 plaque assay; assay type: cell-based, respiratory syncytial virus (RSV); details: strain 248/404ΔSH, 10 μg/ml, treated 1 h before infection, 5 days
Experimental: as §1, §2
as §3, with “antibody. […]” for “antibody.”

RSV = experiment: Inhibition of RSV infection of A549 monolayers; assay type: cell-based, respiratory syncytial virus (RSV); details: prior treatment of A549 monolayers; data not shown
cp-RSV = experiment: Inhibition of infectivity of cp-RSV, HEp-2 plaque assay; assay type: cell-based, respiratory syncytial virus (RSV); details: Table 15 Experiment 1; strain cp-RSV; 10 μg/ml, treated 1 h before infection
Experimental: as §5, §3

[1] = Table 15 Experiment 1, 10 μg/ml
[2] = Table 15 Experiment 1, strain A2, 10 μg/ml, treated 1 h before infection, 3 days

Ac-YFYEKIHARPLPRAIYAFC-NH2 [SEQ ID NO:19, retroinverted peptide of CCL5 residues 11-29 in reverse order]
effect on chemotaxis (in words) (chemotaxis): antagonized chemotaxis

CCL5: recombinant human chemokine CCL5 (RANTES), full length polypeptide of SEQ ID NO:1
Percent Infectivity (cpts248/404; [1]): 28% | Percent Infectivity (cpts248/404; Table 15 Experiment 2, 10 μg/ml): 25% | Percent Infectivity (cp32/D1): 41% | Percent Infectivity (RSV A2; Table 10, 1 μg/ml, exposed 1 hour before infection, plaques after 3 days): 73.6 ± 20.6% | Percent Infectivity (RSV A2; Table 10, 5 μg/ml, exposed 1 hour before infection, plaques after 3 days): 25.0 ± 7.2% | Percent Infectivity (RSV A2; Table 10, 10 μg/ml, exposed 1 hour before infection, plaques after 3 days, relative to control wells (100%)): 29.2 ± 16.7% | Percent Infectivity (RSV A2; Table 10, 10 μg/ml, exposed 1 hour before infection, plaques after 3 days, relative to control wells (100%), listed as rCCL5): approximately 30% | Percent Infectivity (RSV A2; Table 11, 1 μg/ml, exposed 1 hour before infection, plaques after 3 days): 101.0 ± 4.0% | Percent Infectivity (RSV A2; Table 11, 5 μg/ml, exposed 1 hour before infection, plaques after 3 days): 42.0 ± 3.0% | Percent Infectivity (RSV A2; Table 11, 10 μg/ml, exposed 1 hour before infection, plaques after 3 days): 16.0 ± 8.0% | Percent Infectivity (RSV A2; Table 11, 10 μg/ml, exposed 1 hour before infection, plaques after 3 days, listed as rCCL5): ~20% | Percent Infectivity (RSV A2; Table 12, 10 μg/ml, 1 hour after removal of RSV A2 (POST)): 101 ± 12% | Percent Infectivity (RSV A2; Table 12, 10 μg/ml, 1 hour prior to infection (PRE)): 22 ± 11% | Percent Infectivity (RSV A2; Table 13, 10 μg/ml, 1 hour prior to infection (PRE)): 17 | Percent Infectivity (RSV A2; Table 13, 10 μg/ml, CCL5 denatured by heat (HEAT)): 75 | Percent Infectivity (RSV A2; Table 13, 10 μg/ml, simultaneously admixed with RSV (SIM)): 33 | Percent Infectivity (RSV A2; Table 14, 5 μg, pre-treated 1 hour at 4° C.): 37% | Percent Infectivity (RSV A2; Table 14, 5 μg, pre-treated 1 hour at 37° C.): 41% | Percent Infectivity (RSV A2; Table 14, 10 μg, pre-treated 1 hour at 4° C.): 23% | Percent Infectivity (RSV A2; Table 14, 10 μg, pre-treated 1 hour at 37° C.): 4% | Percent Infectivity (RSV A2; Table 14, 20 μg, pre-treated 1 hour at 4° C.): 14% | Percent Infectivity (RSV A2; Table 14, 20 μg, pre-treated 1 hour at 4° C., listed as rCCL5): approximately 14% | Percent Infectivity (RSV A2; Table 14, 20 μg, pre-treated 1 hour at 37° C.): 16% | Percent Infectivity (RSV A2; [2]): 33% | Percent Infectivity (RSV A2; Table 15 Experiment 2, strain A2, 10 μg/ml, treated 1 h before infection, 3 days): 28% | IC50 (RSV A2; prior exposure (1 hour) of HEp-2 cell monolayers, read-out: median inhibitory concentration (IC50)): 726 nM | Percent Infectivity (RSV B1): 24% | binding to the epithelial cell monolayer (in words) (HEp-2 cells): readily bound to the epithelial cell monolayer | Percent Infectivity (rA2cpΔ118): 26% | Percent Infectivity (rA2 cpts248/404ΔSH; Table 15 Experiment 1): 34% | Percent Infectivity (rA2 cpts248/404ΔSH; Table 15 Experiment 2): 13% | inhibition of infection with RSV (in words) (RSV): inhibited infection with RSV | Percent Infectivity (cp-RSV): 64%

B1: met-CCL5: CCL5 of SEQ ID NO:1 with a methionine NH2-terminal to Ser1; inactive as chemokine agonist (protein, listed as Homo sapiens)
chain: MSPYSSDTTPCCFAYIARPLPRAHIKEYFYTSGKCSNPAVVFVTRKNRQVCANPEKKWVREYINSLEMS
modifications: N-terminal methionine
Percent Infectivity (cpts248/404; [1]): 26% | infectivity, percent of control cells (RSV A2; FIG. 1, 1.25 μg met-CCL5/ml, prior treatment): approximately 80% | infectivity, percent of control cells (RSV A2; FIG. 1, 20 μg met-CCL5/ml, pre-treated one hour before infection): approximately 25% | inhibition of infectivity (in words) (RSV A2; FIG. 1, doses of 0.313 or 0.156 μg met-CCL5/ml): not inhibitory | Percent Infectivity (RSV A2; [2]): 31% | Percent Infectivity (rA2cpΔ118): 41% | Percent Infectivity (rA2 cpts248/404ΔSH; Table 15 Experiment 1): 32% | Percent Infectivity (cp-RSV): 64%

From US20070161550A1, “Antiviral compositions which inhibit paramyxovirus infection” (priority 2003, published 2007)
